Test results from PMC12516689, “Stimuli-Responsive Hydrogels from Liquid–Liquid Phase Separations of FUS-Derived Peptides” (ACS Applied Materials & Interfaces, 2025).

Tests used:
[1] = Hydrogel formation, inverted test tube analysis; assay type: physicochemical; settings: for Concentration at which self-supporting hydrogel is obtained: sonication
Procedure: Peptide solutions were dissolved in PBS at concentrations varying from 2.0 μM to 2.0 mM. To allow a complete dissolution, samples were sonicated for 15 min. Hydrogels were prepared by adding PBS to the peptide powder to a final concentration of 2 or 3 wt %. After sonication, samples were stored at 4 °C overnight and the hydrogel formation was macroscopically evaluated through inverted test tube analyses.
Self-supporting hydrogels of L1-L2 and of L1-L2-L3 were obtained starting from a concentration of 2 wt % when 10 mM PBS was used in place of water (inverted test tube, Figure a). […] From a biomedical perspective, achieving gelation at lower peptide concentrations is highly desirable to minimize potential cytotoxicity and facilitate in vivo applications. […] This sequence, in comparison to the L1 and L2 motifs, features a higher content of glycine residues and a single tyrosine, while L1 and L2 each contain two. The different behavior of L3 might therefore arise from a reduced number of π–π stacking interactions, a known driving factor in the gelation process, or the higher entropic cost associated with glycine residues.

[2] = Hydrogel stability in contact with acidic and basic solutions; assay type: physicochemical; settings: preformed hydrogels, room temperature, macroscopically observed up to 7 days
Procedure: To address the impact of the primary sequence on the hydrogel’s sensitivity to external stimuli, their mechanical behavior as a response to pH and temperature triggers was tested. Preformed L1-L2 and L1-L2-L3 hydrogels were put in contact with both acidic (pH 5) and basic (pH 10) solutions at room temperature and were macroscopically observed over time up to 7 days. […] This behavior can be rationalized considering that the presence of ionizable acidic or basic amino acids typically drives pH-responsive properties in peptide-based systems. In our case, the sequences contain only a single acidic residue (Asp, D), which is located within the linker region rather than in the LARKS domains considered to be responsible for driving the gelation process.

[3] = Rheological studies of hydrogels as a function of temperature; assay type: physicochemical; settings: amplitude 0.1%, frequency 1 Hz; for G′ (storage modulus) upon cooling back to 4 °C / G′ (storage modulus) upon heating to 80 °C / G′ (storage modulus), initial value at 4 °C: 2 wt % hydrogel in PBS; for G′ (storage modulus) upon cooling back to 4 °C: after cooling ramp 80 to 4 °C; for G′ (storage modulus) upon heating to 80 °C: end of heating ramp 4 to 80 °C; for G′ (storage modulus), initial value at 4 °C: start of heating ramp 4 to 80 °C
Procedure: Rheological measurements of freshly preformed hydrogels (1000 μL) were performed with a rotational controlled-stress Haake Mars 40 rheometer (Thermo Fisher, Germany) by using a 3.5 cm diameter flat-plate geometry (P35/TI) with a gap of 0.5 mm. The analyses were conducted at different temperatures increasing from 4 to 80 °C and then decreasing from 80 to 4 °C. Amplitude (γ) was set at 0.1% and Frequency 1 Hz. G′ (storage modulus) and G″ (loss modulus) are reported as a function of the temperature.
To study the mechanical behavior of the matrices, hydrogels from L1-L2-L3 and L1-L2 sequences were subjected to rheological measurements. The storage (G′) and loss (G″) moduli, two key parameters describing the viscoelastic behavior of materials, were studied as a function of the temperature. Measurements were conducted across the entire temperature range, increasing from 4 to 80 °C and subsequently decreasing from 80 to 4 °C. […] However, the heating/cooling process induced significant increase in the rigidity of both samples. […] For the L1-L2 sample, the initial values of G′ at these temperatures were 1 Pa at 4 °C, 32 Pa at 80 °C, and 7314 Pa upon cooling back at 4 °C. To enhance the hydrogel disaggregation response to temperature increase, we adopted a design strategy focused on incorporating disruptive elements into the peptide sequences. This approach stems from the insights that the L3 sequence has the potential to inhibit the aggregation of the multi-LARK peptides. Following this rationale, we initially synthesized a multi-LARK sequence made of L3-L2-L3 LCDs (Figure S13a).

[4] = Critical aggregation concentration (CAC) by intrinsic self-fluorescence; assay type: physicochemical; settings: 10 mM PBS pH 7.4, no external probe, excitation 310 nm, emission intensity at 407 or 417 nm vs concentration, break point, 20 °C
Procedure: A Shimadzu RF-6000 (Kyoto, Japan) spectrofluorometer was used to perform fluorescence measurements. Samples were placed in a 10.0 mm × 5.00 mm quartz cell and the settings used for the measurement were excitation and emission bandwidths of 2.5 nm and temperature of 20 °C. The critical aggregation concentration (CAC) of the peptides was estimated through the evaluation of the self-fluorescence behavior of the peptides. After excitation at 310 nm, the intensity of the emission band at 407 or 417 nm was checked and plotted as a function of concentration. Spectra were also recorded in excitation mode.
The ability of the multi-LARKS to self-assemble was evaluated in physiological buffer conditions (10 mM PBS, pH 7.4). Critical aggregation concentrations (CACs), designated as the minimum concentrations at which they spontaneously self-assemble, were assessed in the absence of any external fluorescence probe and by detecting the nonaromatic intrinsic self-fluorescence at increasing peptide concentrations. […] All the multi-LARK sequences here studied presented a near-UV emission, with a maximum of excitation at 310 nm.
By plotting the fluorescence intensity at the maximum emission wavelength as a function of concentration, CAC values, calculated at the break point, resulted 128 μM, 236 μM, 153 μM and 175 μM for L1-L2-L3, L1-L2, L1-L3, and L2-L3, respectively (see Table S2). […]

[5] = dissolved in water, overnight incubation at 4 °C; ref Eisenberg and co-workers; cited from earlier work
[6] = Aggregation kinetics followed by self-fluorescence in microplate reader; assay type: physicochemical; settings: 2.0 mM peptide in PBS; λex 355 nm, emission 460 nm over 300 h; 96-well plate, orbital shake 200 rpm; triplicate
Procedure: Aggregation kinetics of peptide samples at 2.0 mM were followed by using a FLUOstar Omega (BMG LABTECH) microplate reader. Aliquots of 100 μL of each sample were placed in wells of a 96-well plate and covered with an aluminum foil to avoid evaporation of the solvent. Experimental settings were: λex = 355 nm, gain 1000, bottom optic, orbital shake 200 rpm between readings. Emission intensity at 460 nm was recorded over 300 h and subtracted for the blank. Experiments were conducted in triplicate.
The aggregation kinetics of the four multi-LARK sequences were monitored using fluorescence experiments, by exploiting the photoemissive behavior of the peptides in the blue field. As the fluorescence emission of these sequences require the aggregation state, as shown by the analyses conducted in solution, it represents a convenient probe of the self-assembly process. Upon excitation at 355 nm of 2.0 mM peptide solutions, the emission at 460 nm was recorded across a 300 h period (Figure S9). By reporting the fluorescence intensity as a function of time, we observed consistent trends across the four multi-LARKS samples, characterized by three different kinetic phases. […] This lag-phase was followed by a linear increase of the fluorescence signal at 460 nm in a relatively short period for all the samples (between 5 and 30 h) except in the case of L1-L2, where this second phase was longer (∼80 h). […]

G′ (storage modulus) upon cooling back to 4 °C [3] [Pa] | G′ (storage modulus) upon heating to 80 °C [3] [Pa] | G′ (storage modulus), initial value at 4 °C [3] [Pa] | Concentration at which self-supporting hydrogel is obtained ([1]; 10 mM PBS, overnight at 4 °C) [wt %] | Critical aggregation concentration (CAC) [4] [µM] | Lag-phase duration (constant fluorescence intensity) of aggregation kinetics [6] [h] | Substance | Hydrogel stability to acidic (pH 5) and basic (pH 10) solutions [2] | further results
75762 | 4708 | 1967 | ≥ 2 | 128 | ~50 | Ac-SYSGYSGDTSYSSYGQSNGPSTGGYG-NH2 [L1-L2-L3] | No significant variations | Concentration at which hydrogel forms in water [5]: 5 wt %
154332 | 497 | 818 | 2 |  |  | Ac-SYGGYSGDTSYSSYGQS-NH2 [L1*-L2] |  | 
 |  |  |  | 153 | ~50 | Ac-SYSGYSNGPSTGGYG-NH2 [L1-L3] |  | Hydrogel formation ([1]; 10 mM PBS, overnight at 4 °C): no gel formation

The remaining lines, values behind:

Substance | G′ (storage modulus) upon cooling back to 4 °C [3] [Pa] | G′ (storage modulus) upon heating to 80 °C [3] [Pa] | G′ (storage modulus), initial value at 4 °C [3] [Pa] | Concentration at which self-supporting hydrogel is obtained ([1]; 10 mM PBS, overnight at 4 °C) [wt %] | Critical aggregation concentration (CAC) [4] [µM] | Lag-phase duration (constant fluorescence intensity) of aggregation kinetics [6] [h] | Hydrogel stability to acidic (pH 5) and basic (pH 10) solutions [2] | further results
Ac-STGGYGGDTSYSSYGQSNGPSTGGYG-NH2 [L3-L2-L3] |  |  |  |  |  |  |  | Hydrogel formation ([1]; concentrations ranging from 2 to 5 wt %): unable to form hydrogels
Ac-SYSGYSGDTSYSSYGQS-NH2 [L1-L2] |  |  |  |  |  |  | No significant variations | Emission maximum of aggregation-induced fluorescence: 400 nm
Ac-STGGYSGDTSYSSYGQS-NH2 [L1**-L2] |  |  |  | 3 |  |  |  | Temperature at which hydrogel undergoes breakdown (unable to reform upon cooling) ([3]; 3 wt % hydrogel in PBS, heating 4 to 80 °C): 55 °C
